Among the data in PubChem BioAssay AID288 (DTP/NCI, 2004) are T/C values, retold here.

The assay relates to BDF1 mice, M5076 sarcoma s.c., survival/tumor T/C. In words: NCI In Vivo Anticancer Drug Screen. Data for tumor model Sarcoma M5076 (subcutaneous) in B6D2F1 (BDF1) mice. As to the method:
The antitumor activity of compounds was measured in mice bearing transplantable tumors. Survival or tumor size were measured and the results are expressed as the measurement made in the treated group (T) divided by the measurement made in the vehicle treated control group (C). The tumor model used in this assay is Sarcoma M5076 (subcutaneous) in B6D2F1 (BDF1) mice

Where “and” joins values, the source holds several entries; their conditions need not be identical. Equal values may be shown once. Inconclusive results are not listed. Numbered stars: 1 amine (or outer) side, 2 acyl side, 3 side chain; on linkers, the order of the positions; unused ones are H or OH. Bridge positions count the residues as written; N and C are the ends. Square brackets hold non-standard residues; d marks the D form. Peptide text beside a SMILES is read from it. I, II: the chains in the order shown. * marks the point of attachment. ξ: configuration not given here. Quinaldoyl(3-OH,6-OMe) = COc1ccc2nc(C(=O)*)c(O)cc2c1; X2 = CC(=O)OC1CC=NN([*:1])C1C(=O)[*:2]; ξNMeVal(3-OH) = CNC(C(=O)O)C(C)(C)O; X3 = O=C(C1CCCNN1[*:1])[*:2]; Sar = CNCC(=O)O

Consider `O=P1(N(CCCl)CCCl)NCCCO1` (centres undefined), for which the T/C is 100 % of control (endpoint: median survival time, dose: 6.25 mg/kg/injection, schedule: Q04DX006 (ip), vehicle: saline, higher = longer survival); 121 % of control (endpoint: median survival time, dose: 12.5 mg/kg/injection, schedule: Q02DX033 (ip), vehicle: saline, higher = longer survival); 108 % of control (endpoint: median survival time, dose: 12.5 mg/kg/injection, schedule: Q04DX006 (ip), vehicle: saline, higher = longer survival); 214 % of control (endpoint: median survival time, dose: 25.0 mg/kg/injection, schedule: Q02DX033 (ip), vehicle: saline, higher = longer survival); 124 % of control (endpoint: median survival time, dose: 25.0 mg/kg/injection, schedule: Q04DX006 (ip), vehicle: saline, higher = longer survival); 121 % of control (endpoint: median survival time, dose: 50.0 mg/kg/injection, schedule: Q04DX006 (ip), vehicle: saline, higher = longer survival). The T/C (endpoint: median survival time, dose: 64.8 mg/kg/injection, schedule: Q01DX001 (ip), vehicle: saline, higher = longer survival) was 101 % of control; the T/C (endpoint: median survival time, dose: 210.0 mg/kg/injection, schedule: Q01DX001 (ip), vehicle: saline, higher = longer survival) is 155 % of control and 157 % of control.

As to `O=C1NC2(CCCCC2)C(=O)N1CCN(CCCl)CCCl`, the T/C (endpoint: median tumor weight (est.), dose: 16.0 mg/kg/injection, schedule: Q01DX009 (ip), vehicle: saline with Tween-80, higher = larger tumour) was 10 % of control.

Turning to `O=NN(CCCl)C(=O)NC1CCCCC1`, the T/C was 117 % of control (endpoint: median survival time, dose: 2.0 mg/kg/injection, schedule: Q04DX006 (ip), vehicle: saline with Tween-80, higher = longer survival); 168 % of control (endpoint: median survival time, dose: 3.0 mg/kg/injection, schedule: Q01DX009 (ip), vehicle: Klucel (hydroxypropylcellulose) (HPC), higher = longer survival); 250 % of control (endpoint: median survival time, dose: 4.0 mg/kg/injection, schedule: Q02DX033 (ip), vehicle: saline with Tween-80, higher = longer survival); 120 % of control (endpoint: median survival time, dose: 4.0 mg/kg/injection, schedule: Q04DX006 (ip), vehicle: saline with Tween-80, higher = longer survival); 215 % of control (endpoint: median survival time, dose: 6.0 mg/kg/injection, schedule: Q01DX009 (ip), vehicle: Klucel (hydroxypropylcellulose) (HPC), higher = longer survival); 255 % of control (endpoint: median survival time, dose: 8.0 mg/kg/injection, schedule: Q02DX033 (ip), vehicle: saline with Tween-80, higher = longer survival). In addition, the T/C is 183 % of control (endpoint: median survival time, dose: 8.0 mg/kg/injection, schedule: Q04DX006 (ip), vehicle: saline with Tween-80, higher = longer survival); 215 % of control (endpoint: median survival time, dose: 12.0 mg/kg/injection, schedule: Q01DX009 (ip), vehicle: Klucel (hydroxypropylcellulose) (HPC), higher = longer survival); 241 % of control (endpoint: median survival time, dose: 16.0 mg/kg/injection, schedule: Q04DX006 (ip), vehicle: saline with Tween-80, higher = longer survival); 10 % of control (endpoint: median tumor weight (est.), dose: 1.5 mg/kg/injection, schedule: Q01DX009 (ip), vehicle: Klucel (hydroxypropylcellulose) (HPC), higher = larger tumour).

`Cc1ccc(C(=O)N=Nc2c(Cl)c(O)c3ccccc3c2O)cc1`: the T/C is 113 % of control (endpoint: median survival time, dose: 12.5 mg/kg/injection, schedule: Q01DX009 (ip), vehicle: saline with Tween-80, higher = longer survival); 110 % of control (endpoint: median survival time, dose: 25.0 mg/kg/injection, schedule: Q01DX009 (ip), vehicle: saline with Tween-80, higher = longer survival); 89 % of control (endpoint: median survival time, dose: 50.0 mg/kg/injection, schedule: Q01DX009 (ip), vehicle: saline with Tween-80, higher = longer survival); 62 % of control (endpoint: median tumor weight (est.), dose: 12.5 mg/kg/injection, schedule: Q01DX009 (ip), vehicle: saline with Tween-80, higher = larger tumour); 120 % of control (endpoint: median tumor weight (est.), dose: 25.0 mg/kg/injection, schedule: Q01DX009 (ip), vehicle: saline with Tween-80, higher = larger tumour); 80 % of control (endpoint: median tumor weight (est.), dose: 50.0 mg/kg/injection, schedule: Q01DX009 (ip), vehicle: saline with Tween-80, higher = larger tumour). Where the note is “endpoint: median tumor weight (est.), dose: 100.0 mg/kg/injection, schedule: Q01DX009 (ip), vehicle: saline with Tween-80, higher = larger tumour”, the T/C is 88 % of control.

Take `CC(C)CC(NC(=O)C(N)C(C)C)C(=O)NC(CCCCN)C(=O)NC(C(=O)O)C1CC(Cl)=NO1` (centres undefined): the T/C is, setting by setting: (endpoint: median survival time, dose: 1.6 mg/kg/injection, schedule: Q01DX010 (ip), vehicle: saline, higher = longer survival) 103 % of control and 106 % of control; (endpoint: median survival time, dose: 25.6 mg/kg/injection, schedule: Q01DX010 (ip), vehicle: saline, higher = longer survival) 173 % of control; (endpoint: median survival time, dose: 51.2 mg/kg/injection, schedule: Q01DX010 (ip), vehicle: saline, higher = longer survival) 166 % of control.

For `NCCCNCCSP(=O)(O)O`, the T/C is 116 % of control (endpoint: median survival time, dose: 25.0 mg/kg/injection, schedule: Q02DX011 (ip), vehicle: saline, higher = longer survival); 106 % of control (endpoint: median survival time, dose: 50.0 mg/kg/injection, schedule: Q02DX011 (ip), vehicle: saline, higher = longer survival); 96 % of control (endpoint: median survival time, dose: 100.0 mg/kg/injection, schedule: Q02DX011 (ip), vehicle: saline, higher = longer survival).

In the case of `COc1ccc2nc(C(=O)NC3COC(=O)C(C(C)(C)O)N(C)C(=O)CN(C)C(=O)CNC(=O)C4CCCNN4C(=O)C(NC(=O)c4nc5ccc(OC)cc5cc4O)COC(=O)C(C(C)(C)O)N(C)C(=O)CN(C)C(=O)CNC(=O)C4C(OC(C)=O)CC=NN4C3=O)c(O)cc2c1` (centres undefined) (I: {Quinaldoyl(3-OH,6-OMe)}-S[X2]G[Sar][ξNMeVal(3-OH)] / II: {Quinaldoyl(3-OH,6-OMe)}-S[X3]G[Sar][ξNMeVal(3-OH)]; ester I:1-II:C, I:C-II:1; configuration not given here), the T/C reads like this: (endpoint: median survival time, dose: 5.0 micrograms/kg/injection, schedule: Q01DX009 (ip), vehicle: Klucel (hydroxypropylcellulose) (HPC), higher = longer survival) 97 % of control; (endpoint: median survival time, dose: 10.0 micrograms/kg/injection, schedule: Q01DX009 (ip), vehicle: Klucel (hydroxypropylcellulose) (HPC), higher = longer survival) 86 % of control; (endpoint: median survival time, dose: 20.0 micrograms/kg/injection, schedule: Q01DX009 (ip), vehicle: Klucel (hydroxypropylcellulose) (HPC), higher = longer survival) 95 % of control; (endpoint: median survival time, dose: 40.0 micrograms/kg/injection, schedule: Q01DX009 (ip), vehicle: Klucel (hydroxypropylcellulose) (HPC), higher = longer survival) 94 % of control; (endpoint: median tumor weight (est.), dose: 5.0 micrograms/kg/injection, schedule: Q01DX009 (ip), vehicle: DMSO, higher = larger tumour) 90 % of control; (endpoint: median tumor weight (est.), dose: 10.0 micrograms/kg/injection, schedule: Q01DX009 (ip), vehicle: DMSO, higher = larger tumour) 107 % of control. Where the note is “endpoint: median tumor weight (est.), dose: 20.0 micrograms/kg/injection, schedule: Q01DX009 (ip), vehicle: DMSO, higher = larger tumour”, the T/C is 117 % of control.

With `Nc1ncnc2c1ccn2C1OC(CO)C(O)C1O` (centres undefined), the T/C (endpoint: mean tumor weight, dose: 0.75 mg/kg/injection, schedule: Q02DX011 (ip), vehicle: saline, higher = larger tumour) is 117 % of control; the T/C (endpoint: mean tumor weight, dose: 1.5 mg/kg/injection, schedule: Q02DX011 (ip), vehicle: saline, higher = larger tumour) is 101 % of control; the T/C (endpoint: median tumor weight (est.), dose: 0.38 mg/kg/injection, schedule: Q02DX011 (ip), vehicle: saline, higher = larger tumour) was 82 % of control; the T/C (endpoint: median tumor weight (est.), dose: 0.75 mg/kg/injection, schedule: Q02DX011 (ip), vehicle: saline, higher = larger tumour) was 168 % of control; the T/C (endpoint: median tumor weight (est.), dose: 1.5 mg/kg/injection, schedule: Q02DX011 (ip), vehicle: saline, higher = larger tumour) is 110 % of control.

Take `O=C1c2c(O)ccc(O)c2C(=O)c2c(NCCNCCO)ccc(NCCNCCO)c21`: the T/C runs as follows: (endpoint: median tumor weight (est.), dose: 0.25 mg/kg/injection, schedule: Q02DX011 (ip), vehicle: water, higher = larger tumour) 97 % of control; (endpoint: median tumor weight (est.), dose: 1.0 mg/kg/injection, schedule: Q02DX011 (ip), vehicle: water, higher = larger tumour) 31 % of control and 38 % of control; (endpoint: median tumor weight (est.), dose: 2.0 mg/kg/injection, schedule: Q02DX011 (ip), vehicle: water, higher = larger tumour) 4 % of control.

With `COc1cc2c[n+](C)c3c4cc5c(cc4ccc3c2cc1OC)OCO5`, the T/C (endpoint: mean tumor weight, dose: 10.0 mg/kg/injection, schedule: Q02DX011 (ip), vehicle: Klucel (hydroxypropylcellulose) (HPC), higher = larger tumour) was 73 % of control; the T/C (endpoint: median tumor weight (est.), dose: 10.0 mg/kg/injection, schedule: Q02DX011 (ip), vehicle: Klucel (hydroxypropylcellulose) (HPC), higher = larger tumour) is 91 % of control; the T/C (endpoint: median tumor weight (est.), dose: 20.0 mg/kg/injection, schedule: Q02DX011 (ip), vehicle: Klucel (hydroxypropylcellulose) (HPC), higher = larger tumour) is 56 % of control.

With `C1CCC2OCCOCCOCCOCCOC2C1` (centres undefined), the T/C was 111 % of control (endpoint: median survival time, dose: 50.0 mg/kg/injection, schedule: Q01DX009 (ip), vehicle: saline, higher = longer survival); 113 % of control (endpoint: median survival time, dose: 100.0 mg/kg/injection, schedule: Q01DX009 (ip), vehicle: saline, higher = longer survival); 66 % of control (endpoint: median tumor weight (est.), dose: 50.0 mg/kg/injection, schedule: Q01DX009 (ip), vehicle: saline, higher = larger tumour); 75 % of control (endpoint: median tumor weight (est.), dose: 100.0 mg/kg/injection, schedule: Q01DX009 (ip), vehicle: saline, higher = larger tumour).

With `CC[C@](O)(C(=O)O)c1cc2n(c(=O)c1CO)Cc1cc3ccccc3nc1-2`, the T/C was 95 % of control (endpoint: mean tumor weight, dose: 1.13 mg/kg/injection, schedule: Q02DX011 (ip), vehicle: saline, higher = larger tumour); 61 % of control (endpoint: mean tumor weight, dose: 2.25 mg/kg/injection, schedule: Q02DX011 (ip), vehicle: saline, higher = larger tumour); 25 % of control (endpoint: mean tumor weight, dose: 4.5 mg/kg/injection, schedule: Q02DX011 (ip), vehicle: saline, higher = larger tumour); 97 % of control (endpoint: median tumor weight (est.), dose: 1.13 mg/kg/injection, schedule: Q02DX011 (ip), vehicle: saline, higher = larger tumour); 96 % of control (endpoint: median tumor weight (est.), dose: 2.25 mg/kg/injection, schedule: Q02DX011 (ip), vehicle: saline, higher = larger tumour); 44 % of control (endpoint: median tumor weight (est.), dose: 4.5 mg/kg/injection, schedule: Q02DX011 (ip), vehicle: saline, higher = larger tumour).

Regarding `COC(=O)C[C@](O)(CCCC(C)(C)O)C(=O)O[C@@H]1C(OC)=C[C@]23CCCN2CCc2cc4c(cc2[C@H]13)OCO4`, the T/C by setting is: (endpoint: mean tumor weight, dose: 0.5 mg/kg/injection, schedule: Q02DX011 (ip), vehicle: saline, higher = larger tumour) 114 % of control; (endpoint: mean tumor weight, dose: 2.0 mg/kg/injection, schedule: Q02DX011 (ip), vehicle: saline, higher = larger tumour) 37 % of control; (endpoint: median tumor weight (est.), dose: 0.5 mg/kg/injection, schedule: Q02DX011 (ip), vehicle: saline, higher = larger tumour) 77 % of control; (endpoint: median tumor weight (est.), dose: 2.0 mg/kg/injection, schedule: Q02DX011 (ip), vehicle: saline, higher = larger tumour) 34 % of control.
